Data published in patent publication US20230151432A1, “KIF18A INHIBITORS FOR TREATMENT OF NEOPLASTIC DISEASES” (AMGEN INC., priority 2020, published 2023).

Experiments:
MDA-MB-157 cells = experiment: pH3 and PCM spot EC50 determination; details: pH3 and PCM spot EC50 values
[1] = biological target: T1, human KIF18A (residues 1-467) (Homo sapiens, UniProt Q8NI77); experiment: KIF18A MT-ATPase motor activity, ADP-Glo luminescence assay (Example 19); assay type: biochemical; details: human KIF18A 4 nM, 30 μM ATP; three independent experiments; read-out: IC50, KIF18A motor activity (MT-ATPase)
T1 construct: human KIF18A (residues 1-467, 4 nM); made in house
Procedure: A trio of KIF18A inhibitors (Compound C9, Compound C11, and Compound C12) were synthesized and tested in vitro for KIF18A inhibitory activity. […] The values represent mean t SEM from three independent experiments. […] As in vivo studies in mice were planned, the mouse KIF18A inhibitory effects of Compound C9 and C12 were assayed.
KIF18A compounds C9, C11, C12 were 2-fold serially diluted over a 22-point concentration range in DMSO using 384-well plate (Corning). Recombinant truncated kinesin motor proteins (human KIF18A (residues 1-467, 4 nM), mouse KIF18A (residues 1-467, 4 nM)) were expressed and purified. ADP-Glo luminescence assay (Promega) was used to measure the MT-ATPase motor activity. Porcine brain MTs were procured from Cytoskeleton Inc. Compounds were pre-incubated for <30 min in reaction buffer (15 mM Tris, pH 7.5, 10 mM MgCl2, 0.01% Pluronic F-68, 2% DMSO, 1 μM paclitaxel, 30 μg/mL MTs) with motor proteins at concentrations indicated above, 30 μM ATP was added to initiate the enzymatic reaction for 15 min at room temperature (RT). ADP-Glo reagents were added according to manufactures protocol, the luminescence intensity proportional to ADP present was measured using an EnVision plate reader (Perkin Elmer). Raw luminescence signal data was normalized to POC (percentage of positive control) and then Activity (%) was computed [POC=100×(sample signal−negative control signal)+(positive control signal−negative control signal). Activity (%)=POC−100]. The positive control (enzyme+substrate) and negative control (substrate alone) had equivalent concentrations of DMSO. Curve-fitting and IC50 values were determined by 4-parameter non-linear regression equation (variable slope) using GraphPad Prism 7.05 (GraphPad Software).

[2] = tested on: normal human foreskin fibroblast cells; experiment: Arrayscan VTi multiplex imaging assays; assay type: cell-based; details: 48 hours, top 10 μM (C11) or 1 μM (C9); for total object count and BrdU incorporation: 9-point range
Procedure: Imaging assays were also carried out to determine the effects of KIF18A inhibitor treatment on normal somatic cells. Arrayscan VTi multiplex imaging assays were carried out with human FSF cells as described below. Briefly, normal human foreskin fibroblast cells were seeded at 6000 cells per well in 96-well imaging plates (Corning) and cultured overnight. The next day, two replicate 96-well plates were treated with DMSO or panel of test agents over a 9-point concentration range using 3-fold dilution with top concentration of 10 μM (KIF18A inhibitor Compound C11, nutlin-3a), 1 μM (KIF18A inhibitor Compound C9, BI-2536, ispinesib, paclitaxel), or 5 μM (palbociclib, GSK923295). After 48 hours of treatment, one plate was pulsed with BrdU (Invitrogen) for 3 hours before fixation. Both 96-well plates fixed with 4% formaldehyde (Thermo Scientific), washed twice with wash buffer [PBS, 1% BSA (Thermo Fisher), 0.2% Triton X-100 (Sigma)]. The first 96-well plate was processed for BrdU epitope detection using acid wash, blocked overnight at 4° C. in wash buffer supplemented with horse serum (4 drops serum per 10 mL) (Vector Labs) and stained with anti-BrdU-AlexaFluor-647 (B35140, Invitrogen, mouse, 3 μg per mL) and anti-p21 (12D1) (2947, Cell Signaling, rabbit, 1:400) antibodies for two hours at room temperature. Cells were washed twice in wash buffer and stained with secondary antibody [anti-rabbit-IgG-AlexaFluor-488 (A1 1034, Invitrogen, 1:2000)] and incubated for one hour at room temperature. The second 96-well plate was blocked overnight at 4° C. in wash buffer supplemented with horse serum (4 drops serum per 10 mL) (Vector Labs) and stained with anti-cl-PARP (214/215) (44-6986, Invitrogen, rabbit, 1:1500) and anti-γH2AX (05-636, Millipore, mouse, 1:1000) antibodies for two hours at room temperature. Cells were washed twice in wash buffer and stained with secondary antibodies [anti-rabbit-IgG-AlexaFluor-647 (A21245, Invitrogen, 1:2000), anti-mouse-IgG-AlexaFluor-488 (A1 1029, Invitrogen, 1:2000)] and incubated for one hour at room temperature. Both 96-well plates were washed twice and counterstained with Hoeschst 33342 (Invitrogen) nuclear dye. Imaging data was collected by widefield imaging on ArrayScan VTi HCS Reader (Thermo Scientific) from 64 fields per well using 20×objective. Valid nuclear object counts were determined for each well as well as the percentage of BrdU, p21, cl-PARP, and γH2AX positive objects for each test agent concentration and DMSO control. Concentration-response heatmaps were generated using GraphPad Prism software (V7.0.4).

[3] = tested on: panel of cell lines (HCC-1806, HCC-1937, BT-549, MDA-MB-157, MCF-7, CAL-51, MDA-MB-453, ZR-75-1, OVCAR-3, OVCAR-5); experiment: 96 h cell growth assay (Example 19); assay type: cell-based; details: Homo sapiens, KIF18A inhibitor-sensitive cells (e.g., OVCAR-3 and BT-549), read-out: Mean Count EC50
Procedure: KIF18A inhibitor cancer cell line sensitivity profiles were determined for KIF18A inhibitor Compounds C9 and C11. Cells of various cancer cell lines were treated with DMSO or increasing concentrations of C9 or C11 for 96 h. The concentration-response profiles of some cancer cell lines (including, e.g., BT-549, OVCAR-3) for C11 were similar. […] Cancer cell lines CAL-51, MDA-MG-453 and OVCAR-5 were insensitive to C9 and C11.
Cell growth assay. A panel of cell lines (HCC-1806, HCC-1937, BT-549, MDA-MB-157, MCF-7, CAL-51, MDA-MB-453, ZR-75-1, OVCAR-3, OVCAR-5) were seeded in 96-well plate at densities optimized for 96 h cell growth assay. The next day, cells were treated with DMSO or one of the following compounds: KIF18A Inhibitor Compounds C9 and C11, or palbociclib, with top concentration of 6 μM (19-point concentration range) using staggered dose method. After 96 h, cells were fixed, stained, imaged, and analyzed as described above. Valid nuclear object counts were determined for each well and Count POC value was computed using the following formula [Count POC=(valid nuclear object count in treated well)+(valid nuclear object count in DMSO treated wells)×100]. Concentration-response curve-fitting was performed by 4-parameter non-linear regression equation using GraphPad Prism 7.05. Mean Count EC50 value was computed for each cell line from two independent experiments run in duplicate. […]

T1 sequence (Q8NI77 1-467): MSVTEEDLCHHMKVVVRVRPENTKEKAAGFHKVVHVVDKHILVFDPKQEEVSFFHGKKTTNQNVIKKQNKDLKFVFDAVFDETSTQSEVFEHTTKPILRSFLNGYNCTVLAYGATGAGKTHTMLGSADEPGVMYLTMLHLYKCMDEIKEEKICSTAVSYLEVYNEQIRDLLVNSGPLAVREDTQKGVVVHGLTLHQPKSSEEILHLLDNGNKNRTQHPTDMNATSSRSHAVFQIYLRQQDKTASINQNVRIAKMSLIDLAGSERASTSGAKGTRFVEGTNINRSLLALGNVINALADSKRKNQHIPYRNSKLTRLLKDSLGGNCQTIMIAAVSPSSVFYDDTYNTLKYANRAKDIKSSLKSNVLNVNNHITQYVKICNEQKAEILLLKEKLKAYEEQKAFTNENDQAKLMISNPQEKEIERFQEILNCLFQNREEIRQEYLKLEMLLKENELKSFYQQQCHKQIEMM
T1 sequence (P02550 whole entry partner, the tested form may be a part): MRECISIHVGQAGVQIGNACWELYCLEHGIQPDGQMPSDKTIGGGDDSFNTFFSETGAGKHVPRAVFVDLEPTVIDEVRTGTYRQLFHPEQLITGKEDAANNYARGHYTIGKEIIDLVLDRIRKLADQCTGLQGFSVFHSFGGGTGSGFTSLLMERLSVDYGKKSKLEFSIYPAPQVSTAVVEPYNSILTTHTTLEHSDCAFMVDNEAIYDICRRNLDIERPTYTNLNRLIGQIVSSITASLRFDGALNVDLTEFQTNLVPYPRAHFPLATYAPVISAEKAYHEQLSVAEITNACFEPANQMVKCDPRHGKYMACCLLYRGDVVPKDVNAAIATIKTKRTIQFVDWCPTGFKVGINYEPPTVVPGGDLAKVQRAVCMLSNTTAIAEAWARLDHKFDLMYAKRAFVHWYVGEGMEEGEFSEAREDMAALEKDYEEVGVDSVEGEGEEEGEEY
T1 sequence (P02554 whole entry partner, the tested form may be a part): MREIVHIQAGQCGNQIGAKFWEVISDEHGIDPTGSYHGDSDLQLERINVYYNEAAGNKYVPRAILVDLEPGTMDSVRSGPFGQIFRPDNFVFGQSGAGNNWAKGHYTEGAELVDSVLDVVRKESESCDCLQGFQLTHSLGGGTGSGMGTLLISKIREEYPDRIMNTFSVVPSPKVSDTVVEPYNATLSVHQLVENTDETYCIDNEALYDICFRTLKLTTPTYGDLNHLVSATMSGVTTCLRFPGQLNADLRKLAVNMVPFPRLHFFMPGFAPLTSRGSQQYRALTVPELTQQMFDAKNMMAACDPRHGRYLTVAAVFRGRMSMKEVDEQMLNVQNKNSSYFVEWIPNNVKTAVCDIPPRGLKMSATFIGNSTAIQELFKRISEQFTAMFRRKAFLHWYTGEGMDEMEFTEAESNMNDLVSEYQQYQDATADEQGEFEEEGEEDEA

SMILES	improvement of cell potency relative to a control compound (MDA-MB-157 cells) [fold]	IC50 [1] [µM]	total object count and BrdU incorporation [2]	cell cycle arrest measured by the induction of p21 protein expression [2]	induction of DNA damage measured by increase in γHH2X expression [2]	induction of apoptosis measured by cl-PARP expression [2]	EC50 [3] [µM]
CC(C)(C)NS(=O)(=O)c1cccc(NC(=O)c2ccc(S(=O)(=O)NC(C)(C)C)cc2N2CCC3(CC2)CC3)c1 [Compound C9, 4-(N-(tert-butyl)sulfamoyl)-N-(3-(N-(tert-butyl)sulfamoyl)phenyl)-2-(6-azaspiro[2.5]octan-6-yl)benzamide]	> 450	0.18	behaved as vehicle control treated cells	no cell cycle arrest	no	no induction of apoptosis	0.021
CC(C)(CO)Nc1ccc(C(=O)Nc2cccc(S(=O)(=O)C3CCCC3)c2)c(N2CCC3(CC2)CC3)n1 [Compound C11, N-(3-(cyclopentylsulfonyl)phenyl)-6-((1-hydroxy-2-methylpropan-2-yl)amino)-2-(6-azaspiro[2.5]octan-6-yl)nicotinamide]	> 70	0.07	behaved as vehicle control treated cells	no cell cycle arrest	no	no induction of apoptosis	0.047
